Test system: cancer cells resistant to CAR T cell-mediated killing
Assay: T cell-mediated killing of cancer cells by CAR T cells in presence of BCL2 inhibitor
Format: cell-based
Settings: cancers resistant to T cell therapy alone, low doses without activity on tumor alone

CC1(C)CCC(CN2CCN(c3ccc(C(=O)NS(=O)(=O)c4ccc(NCC5CCOCC5)c([N+](=O)[O-])c4)c(Oc4cnc5[nH]ccc5c4)c3)CC2)=C(c2ccc(Cl)cc2)C1 [venetoclax]
T cell-mediated killing of cancer cells by a T cell therapy (CAR T cells): improves T cell-mediated killing of cancer cells

— US20220249637A1, “COMBINATION THERAPY OF A CELL-MEDIATED CYTOTOXIC THERAPY AND AN INHIBITOR OF A PROSURVIVAL BCL2 FAMILY PROTEIN” (Juno Therapeutics, Inc., priority 2019, published 2022)
